The values that follow come from US6087395A, “Isocarbacyclin derivatives as apoptosis inhibitors” (Japan Science and Technology Corporation, priority 1997, dated 2000).

Data set [1] deals with hippocampal CA1 pyramidal neurons. Put plainly: Hippocampal CA1 pyramidal neuron apoptosis induced by transient forebrain ischemia, in vivo. The conditions noted are these: continuous infusion into left lateral ventricle for 7 days. The arrangement: species or system mongolian gerbil. As to the method:
Effect of 15R-TIC on hippocampal CA1 pyramidal neurons apoptosis induced by ischemic damage in mongolian gerbils was tested in vivo.
To examine whether 15R-TIC can prevent nouronal death in vivo, using an osmotic mini-pomp, 15R-TIC solution was continuously infused for 7 days (started 2 days before the transient ischemia and ended at 5 days) into the left lateral ventricle of gerbils that had been subjected to a transient forebrain ischemia for 3 minutes. Survival number of CA1 pyramidal neurons was assessed by counting neurons with cell bodies larger than 10 μm in the Nissl-staining sections.

In another data set the test system is hippocampal neurons. Put plainly: Hippocampal neuron apoptosis induced by high-oxygen (50% oxygen) incubation. Type of data set: cell-based, rat (Wistar strain, fetal). The conditions noted are these: 48 hours; for survival rate of neurons at 3000 nM (FIG. 2): control = neurons in 9% oxygen; for survival rate of hippocampal neurons incubated in 50% oxygen (FIG. 1): 5 μM (bFGF 50 nM), neurons in 9% oxygen as control; for IC50: Rattus norvegicus, Hippocampal neuron, read-out: IC50 (inhibition of hippocampal neural apoptosis); for dose-dependent effect on hippocampal neural apoptosis / neuroprotection (FIG. 2): range of concentrations tested, n=4. As to the method: Effect of 15R-TIC and Deoxy-TIC on hippocampal neuron apoptosis induced by a high-oxygen incubation was tested.
Isocarbacyclin was a pure sample supplied from Teijin Co., Ltd. 15S-TIC was prepared in accordance with the method disclosed in Example 3 of JP-A 245,498/96 by using 15S-16-m-tolyl-17,18,19,20-tetra-nor-carbacyclin which is also disclosed in Example 2 of the same Publication JP-A 245,498/96. The 15R-TIC was prepared by the same method as disclosed in Example 3 of the Publication JP-A 245,498/96. bFGF was the commercially available one.
Hippocampal region was cut out from the fetal rat brain which was aseptically isolated from a pregnant rat (Wistar strain) of […] and the hippocampal region was dispersed into neurons by shaking culture for 30 minutes in a PBS (Ca- and Mg-free) containing DL-cysteine (0.2 mg/ml), bovine serum albumin (0.2 mg/ml), glucose (5 mg/ml), DNase I (0.01%) and papain (9 units/ml). After that, each neutron was planted at the density of 5×10^5 cells/cm^2 on a 24-well plate (coated with polyethyleneimine) filled with a DME/F-12 medium (containing 5% equine serum and 5% fetal bovine serums and incubated for two days in a 5% carbon dioxide gas incubator (9% oxygen). After that, the culture medium was substituted with an DME/F-12 medium (containing 5 μg/ml of transferrin, 5 μg/ml of insulin and 5 nM progasterone) wherefrom serum was removed. Then each sample to be tested was added to the medium, and after 30 minutes, transfered into 50% oxygen. After incubating in 50% oxygen for 48 hours, the survival rate of the neurons was measured. The neurons in 9% oxygen were also added to each sample and the survival rate was measured.
Which regard to the survival rate, the neurons were immobilized by 4% paraformaldehyde, stained with anti-MAP2 antibody and colored by DAB, and the cells positive to MAP2 were counted from the 200-fold enlarged picture whereupon the survival rate was calculated.

For data set [2] the following is noted: rhesus monkey, in vivo.

With `Cc1cccc(C[C@@H](O)/C=C/[C@@H]2[C@H]3CC(CCCCC(=O)O)=C[C@H]3C[C@H]2O)c1` [15R-TIC, 15R-16-(m-tolyl)-17,18,19,20-tetranorisocarbacyclin], the “loss of CA1 pyramidal neurons induced by forebrain ischemia” value in data set [1] was “blocked the loss of CA1 pyramidal neurons induced by forebrain ischemia”. Also, the “number of CA1 pyramidal neurons” value in data set [1] (in a 20 μm thick section, n=4, 3 minutes transient forebrain ischemia, ischemia-free control 1061±220, vehicle 142±28) is reported as 984±299. In the data set with hippocampal neurons, the “survival rate of neurons at 3000 nM (FIG. 2)” value was “equivalent to the control”, the “survival rate of hippocampal neurons incubated in 50% oxygen (FIG. 1)” value (shortened to “survival rate … in 50% oxygen (FIG. 1)”) is on record as “an increase in the survival rate of neurons was observed to the same or even better extent as compared with the case of bFGF”, the IC50 is about 300 nM and the “dose-dependent effect on hippocampal neural apoptosis / neuroprotection (FIG. 2)” value is “dose-dependent inhibitory effect on neural apoptosis”.

For the compound `COC(=O)CCCCC1=C[C@H]2C[C@@H](O)[C@H](/C=C/[C@H](O)Cc3cccc(C)c3)[C@H]2C1` [15R-TIC methyl ester], the “conversion in the brain (prodrug behaviour)” value in data set [2] is listed as “is converted to 15R-TIC in the brain”. In data set [2] (iv), the “pass through blood-brain-barrier / transfer into brain” value is recorded as “efficiently transfererd into the brain”.

`Cc1cccc(CC/C=C/[C@@H]2[C@H]3CC(CCCCC(=O)O)=C[C@H]3C[C@H]2O)c1` [Deoxy-TIC, 15-Deoxy-16-(m-tolyl)-17,18,19,20-tetranorisocarbacyclin]: in the data set on hippocampal neurons, the “survival rate of neurons at 3000 nM (FIG. 2)” value is given as “equivalent to the control”, the “survival rate … in 50% oxygen (FIG. 1)” value is “an increase in the survival rate of neurons was observed to the same or even better extent as compared with the case of bFGF”, the IC50 is about 30 nM and the “dose-dependent effect on hippocampal neural apoptosis / neuroprotection (FIG. 2)” value is reported as “dose-dependent inhibitory effect on neural apoptosis”.

On to `COC(=O)CCCCC1=C[C@H]2C[C@@H](O)[C@H](/C=C/[C@H](O)Cc3cccc([11CH3])c3)[C@H]2C1` [RTA], for which the “conversion in the brain (prodrug behaviour)” value in data set [2] is “could serve as a prodrug for 15R-TIC”. Moreover, in data set [2] (iv), the “pass through blood-brain-barrier / transfer into brain” value is listed as “equivalent pass through blood-brain-barrier” and the “retention in the brain” value is listed as “retained in the brain further than RTC”.

With `CCCCC[C@H](O)/C=C/[C@@H]1[C@H]2CC(CCCCC(=O)O)=C[C@H]2C[C@H]1O` [isocarbacyclin], in the data set on hippocampal neurons, the “survival rate … in 50% oxygen (FIG. 1)” value is “greatly reduced by apoptosis induced by a high-oxygen condition as same as under the control condition” and the “dose-dependent effect on hippocampal neural apoptosis / neuroprotection (FIG. 2)” value is listed as “did not have any effect on neuroprotection in the range of concentrations tested”.

On to `Cc1cccc(C[C@H](O)/C=C/[C@@H]2[C@H]3CC(CCCCC(=O)O)=C[C@H]3C[C@H]2O)c1` [15S-TIC, reference compound], for which, in the data set on hippocampal neurons, the “survival rate … in 50% oxygen (FIG. 1)” value is given as “greatly reduced by apoptosis induced by a high-oxygen condition as same as under the control condition” and the “dose-dependent effect on hippocampal neural apoptosis / neuroprotection (FIG. 2)” value is reported as “did not have any effect on neuroprotection in the range of concentrations tested”.

In the case of `Cc1cccc(C[C@@H](O)/C=C/[C@@H]2[C@H]3CC(CCCCC(=O)O[11CH3])=C[C@H]3C[C@H]2O)c1` [RTC], the “pass through blood-brain-barrier / transfer into brain” value in data set [2] (iv) is on record as “equivalent pass through blood-brain-barrier”.
